Structures can show the parent of a compound that is named as a salt.
Columns and labels:
[1] = tested on: mutant forms of GAA in Pompe patient-derived fibroblasts; test: Level of mutant GAA in Pompe patient-derived fibroblasts; assay type: cell-based, human; conditions: data not shown
hP545L GAA [2] = target: T1, hP545L GAA (Homo sapiens, UniProt P10253, P545L); test: Biochemical assay for determining GAA level in tissues of DNJ-dosed hP545L GAA Tg/KO mice; assay type: in vivo; conditions: 'Moderate' hP545L GAA Tg/KO mice; DNJ 30, 100, 300 mg/kg/day oral ad libitum in drinking water, 4 weeks; disease-relevant tissues
Protocol: (§1) Mice were euthanized with CO2 and body weights were recorded. […] Plasma was collected by spinning blood at 2700 g for 10 minutes at 4° C. Heart, diaphragm, gastrocnemius, soleus, skin, and brain tissues were removed, washed in cold PBS, blotted dry, and weighed before storing on dry ice. For biochemical assays (GAA activity, glycogen and Western blotting), lysates were prepared by homogenizing ˜50 mg tissue for 3-5 seconds on ice with a micro homogenizer in 200 μL Lysis Buffer (25 mM Bis-Tris pH 6.5, 150 mM NaCl, 1% Triton X-100 pH 6.5). For histology assays, tissues were harvested and fixed immediately in 3.7% Formaldehyde/90% Ethanol mix. After fixation, the samples were processed in various grades (10, 20, 50, 75, 100%) of alcohol and embedded in paraffin.
(§2) The dosing solutions were made fresh each week and water consumption was monitored daily.
(§3) After dosing was completed, mice were euthanized and plasma samples as well as tissue samples harvested as described above.

[3] = tested on: human GAA missense mutations; test: In vitro studies to identify a human GAA missense mutation responsive to DNJ; assay type: cell-based; conditions: data not shown
[4] = target: human GAA missense mutations (Homo sapiens, UniProt P10253, P545L); test: as above; assay type: cell-based; conditions: 5-day incubation with DNJ, data not shown
alpha-galactosidase = target: T2, alpha-galactosidase (Mus musculus, UniProt P51569); test: Specificity: alpha-galactosidase in mice administered DNJ; assay type: in vivo; conditions: data not shown
T2 construct: from tissue
T2 sequence (P51569 32-419): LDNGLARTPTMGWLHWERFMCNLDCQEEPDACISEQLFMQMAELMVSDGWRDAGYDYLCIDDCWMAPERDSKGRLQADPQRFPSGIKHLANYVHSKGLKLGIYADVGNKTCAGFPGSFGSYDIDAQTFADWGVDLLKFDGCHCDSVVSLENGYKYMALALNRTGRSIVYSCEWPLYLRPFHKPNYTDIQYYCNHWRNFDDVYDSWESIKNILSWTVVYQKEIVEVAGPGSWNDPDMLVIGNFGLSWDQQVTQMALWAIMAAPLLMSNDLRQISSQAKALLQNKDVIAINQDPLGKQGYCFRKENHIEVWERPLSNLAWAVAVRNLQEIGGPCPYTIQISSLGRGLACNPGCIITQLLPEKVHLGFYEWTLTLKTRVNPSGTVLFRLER

GAA [5] = target: T3, GAA (Mus musculus, UniProt P70699); test: GAA activity, protein and processing in mice administered DNJ orally; assay type: in vivo; conditions: data not shown
T3 construct: from tissue
T3 sequence (P70699 70-953): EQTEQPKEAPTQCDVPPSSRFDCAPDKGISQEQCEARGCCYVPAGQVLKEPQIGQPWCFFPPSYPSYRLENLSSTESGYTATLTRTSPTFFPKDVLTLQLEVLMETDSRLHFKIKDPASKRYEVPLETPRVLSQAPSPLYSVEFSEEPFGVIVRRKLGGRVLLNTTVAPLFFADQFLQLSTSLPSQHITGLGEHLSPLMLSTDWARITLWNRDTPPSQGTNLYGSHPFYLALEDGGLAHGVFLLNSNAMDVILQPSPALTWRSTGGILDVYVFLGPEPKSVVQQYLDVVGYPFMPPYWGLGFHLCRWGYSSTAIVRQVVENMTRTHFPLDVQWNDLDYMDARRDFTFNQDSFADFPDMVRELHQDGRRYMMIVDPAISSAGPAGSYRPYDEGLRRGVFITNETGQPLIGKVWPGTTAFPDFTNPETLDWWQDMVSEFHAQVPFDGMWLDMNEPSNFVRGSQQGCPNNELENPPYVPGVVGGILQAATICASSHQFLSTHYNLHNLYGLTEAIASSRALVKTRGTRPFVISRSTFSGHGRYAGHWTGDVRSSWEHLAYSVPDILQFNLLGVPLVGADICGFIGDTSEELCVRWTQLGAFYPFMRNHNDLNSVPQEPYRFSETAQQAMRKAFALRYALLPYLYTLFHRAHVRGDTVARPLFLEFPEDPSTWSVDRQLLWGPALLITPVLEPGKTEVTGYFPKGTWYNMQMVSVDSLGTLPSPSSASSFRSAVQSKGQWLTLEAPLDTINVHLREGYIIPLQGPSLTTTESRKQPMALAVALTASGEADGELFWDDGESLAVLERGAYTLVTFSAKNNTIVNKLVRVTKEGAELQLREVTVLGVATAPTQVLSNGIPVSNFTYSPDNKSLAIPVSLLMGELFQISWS

[6] = tested on: mutant forms of recombinant human GAA in COS-7 cells; test: Level of mutant GAA in transiently-transfected COS-7 cells; assay type: cell-based; conditions: COS-7 cells transiently-transfected with recombinant human GAA; data not shown
Half-life of DNJ = conditions: stated within a theory on/off dosing, compared to GAA (days); no method
recombinant human GAA = recombinant human GAA (Homo sapiens, UniProt P10253); test: Binding to and thermostability of recombinant human GAA in vitro; conditions: data not shown
[7] = tested on: mutated form of GAA (M519V, P545L, G549R, L552P) in HEK293 cells; test: GAA activity, protein and processing in HEK293 cells transiently-transfected with mutated GAA; assay type: cell-based; conditions: data not shown
hP545L GAA Tg/KO mice = test: Biochemical assay for determining glycogen level (amyloglucosidase digestion) in tissues of DNJ-dosed hP545L GAA Tg/KO mice; assay type: in vivo, mouse; conditions: 'Moderate' hP545L GAA Tg/KO mice
Protocol: as §1
Tissue glycogen levels were measured in supernatants of heat denatured (99° C. for 10 min.) lysates as prepared above for GAA assay. Samples were analyzed in duplicates by adding 4 μL of lysate to 36 μL water with and without 10 μL of 800 units/mL of amyloglucosidase enzyme (Sigma) and incubated for 1 hour at 50° C. The reaction was stopped by heat inactivation at 100° C. for 10 min. Finally 200 μL of glucose reagent was added to estimate the amount of glucose released at 340 nm absorbance on Spectramax. A glycogen standard curve ranging from 400 μg/mL to 5 μg/mL was run each day for conversion of absorbance data to absolute glycogen levels. Data are ultimately expressed as μg of glycogen cleaved/milligram of protein. The protein levels were measured in lysates (before denaturing) using Micro BCA Protein Assay Kit according to the manufacturer's instructions.
as §2, §3
Mice were orally dosed (ad libitum in drinking water) either daily or using one of three less-frequent on/off regimens (i.e., (i) 3 days on/4 days off; (ii) 5 days on/2 days off; or (iii) 7 days on/7 days off). […] The dosing solution was made fresh each week and water consumption was monitored daily.
After dosing was completed, mice were euthanized and tissue samples harvested as described above.

hP545L GAA [8] = target: T1, hP545L GAA; test: GAA protein level by Western blotting in tissues of DNJ-dosed hP545L GAA Tg/KO mice; assay type: in vivo; conditions: 'Moderate' hP545L GAA Tg/KO mice; DNJ 30, 100, 300 mg/kg/day oral, 4 weeks; disease-relevant tissues
Protocol: as §1
Tissue lysates (50 μg total protein per lane) were subjected to SDS-PAGE on 12% gels (Bio-Rad, Hercules, Calif.), transferred to PVDF membranes (Bio-Rad), and immunoblotted with a rabbit anti-human GAA (kind gift of Dr. Barry Byrne) polyclonal antibody (1:500 dilution). Protein bands were detected using peroxidase-conjugated goat anti-rabbit secondary antibodies (1:1000) (Jackson Immunosearch Labs, West Grove, Pa.) in combination with enhanced chemiluminescence (Pierce). […]
as §2

GAA [9] = test: GAA activity, protein and processing in monkeys administered DNJ orally; assay type: in vivo, cynologous monkeys; conditions: cynomolgus monkeys, data not shown
[10] = DNJ 30, 100, 300 mg/kg/day oral, 4 weeks

With `OC[C@H]1NC[C@H](O)[C@@H](O)[C@@H]1O` [DNJ, 1-deoxynojirimycin-HCl] the “level of multiple different mutant forms of GAA” value [1] was “significantly increase”, the “GAA levels (tissue GAA activity)” value (hP545L GAA [2]) was “significant and dose-dependent increase” and the “responsiveness of P285R, E262K, E579K GAA mutations to DNJ” value [3] was “even more responsive than P545L”. For the same compound, the “GAA activity, P545L mutation” value [4] was “robust, reproducible, dose-dependent and statistically-significant increase”, the alpha-galactosidase activity (alpha-galactosidase) was “no increase” and the GAA protein levels (GAA [5]) was “increased”. The “processing to the 70-kDa mature form of GAA” value (GAA [5]) was “increased”, the GAA activity (GAA [5]; oral) was “increase in a dose-dependent manner” and the “level of multiple different mutant forms of GAA” value [6] was “significantly increase”. For the same compound, the “half-life of DNJ” value (Half-life of DNJ) was “hours”, the “binding to GAA” value (recombinant human GAA) was “directly bind” and the “thermostability of recombinant human GAA” value (recombinant human GAA) was “concentration-dependent increase”. For the same compound, the “GAA processing to the 95-, 76-, and 70-kDa forms” value [7] was “increase”, the GAA protein levels [7] was “increase” and the “level of GAA activity” value [7] was “increase”. For the same compound, the “glycogen reduction, on/off regimens compared to daily dosing” value (hP545L GAA Tg/KO mice; 100 mg/kg/day oral, 4 weeks, p<0.05 daily vs. on/off) was “greater glycogen reduction”, the “glycogen levels in disease-relevant tissue” value (hP545L GAA Tg/KO mice; 100 mg/kg/day oral, daily or on/off (3/4, 5/2, 7/7 days), 4 weeks, majority of tissues examined, p<0.05 vs. untreated) was “significant reduction” and the “glycogen levels of brain” value (hP545L GAA Tg/KO mice; [10]) was “robust reduction”. For the same compound, the “glycogen levels of diaphragm” value (hP545L GAA Tg/KO mice; [10]) was “moderate reduction”, the “glycogen levels of gastrocnemius” value (hP545L GAA Tg/KO mice; [10]) was “moderate reduction” and the “glycogen levels of heart” value (hP545L GAA Tg/KO mice; [10]) was “moderate reduction”. The “glycogen levels of skin” value (hP545L GAA Tg/KO mice; [10]) was “robust reduction”, the “glycogen levels of soleus” value (hP545L GAA Tg/KO mice; [10]) was “robust reduction” and the tissue glycogen levels (hP545L GAA Tg/KO mice; four-week oral administration (ad libitum), tissues overall) was “decrease”. For the same compound, the GAA protein levels (hP545L GAA [8]) was “significant and dose-dependent increase”, the “processing of GAA protein to its 76 kDa mature form” value (hP545L GAA [8]) was “significant and dose-dependent increase” and the GAA activity (GAA [9]; oral) was “increase in a dose-dependent manner”. The GAA protein levels (GAA [9]) was “increased” and the “processing to the 70-kDa mature form of GAA” value (GAA [9]) was “increased”.
